Source: ChEMBL document CHEMBL1201862, “PubChem BioAssay data set” (2004)
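Assay format: 96-well plates, 48-hour exposure. At the GI50, growth is halved.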 Active and inactive are the calls of the source. No stated cut-off is given here; in the data, active = GI50 up to about 1.1 µM and inactive = higher.

Tests used:
Assay in all cases: inhibition of tumour cell growth, NCI panel, 48 h
LXFL 529 = test system: LXFL 529
KM-20L2 = test system: KM-20L2
DLD-1 = test system: DLD-1
Hs-578T = test system: Hs-578T
MDA-N = test system: MDA-N
BT-549 = test system: BT-549
DMS-273 = test system: DMS-273
HOP-18 = test system: HOP-18

SMILES	GI50 (LXFL 529)	GI50 (KM-20L2)	GI50 (DLD-1)	GI50 (Hs-578T)	GI50 (MDA-N)	GI50 (BT-549)	GI50 (DMS-273)	GI50 (HOP-18)
CC1=NN(C(=O)c2ccc(Cl)cc2)C(=O)/C1=C/c1cccc([N+](=O)[O-])c1	> 100 µM (inactive)	> 100 µM (inactive)	> 100 µM (inactive)					
O=C1OC2(c3ccc(O)cc3Oc3cc(O)ccc32)c2c1c(-c1ccccc1)c(-c1ccccc1)c(-c1ccccc1)c2-c1ccccc1				22 µM (inactive)	21.8 µM (inactive)	23.6 µM (inactive)		
O=[N+]([O-])c1ccc(Nc2cccc3c4cc[nH]c(-c5ccccc5)c-4nc23)c([N+](=O)[O-])c1		> 100 µM (inactive)	> 100 µM (inactive)				> 100 µM (inactive)	> 100 µM (inactive)
CC(C)(C)N(Cc1ccc2c(c1)OCO2)C(=O)/C=C\[S+]([O-])c1ccccc1 (stereo not given)				2.33 µM (inactive)	2.4 µM (inactive)	2.43 µM (inactive)		
COc1cc(/C=C2\CCC(C)C3=C(c4cc(OC)c(OC)c(OC)c4)C(C#N)=C(N)OC32)cc(OC)c1OC (stereo not given)				2.1 µM (inactive)	2.47 µM (inactive)	5.97 µM (inactive)		
O=C(O)CCC1(c2ccccc2)NC(=O)NC1=O (stereo not given)				> 100 µM (inactive)	> 100 µM (inactive)	> 100 µM (inactive)		
COC(=O)C(C(=O)C(=O)NC1Nc2ccc(C)cc2S1)c1nc2ccc(Cl)cc2nc1O (stereo not given)				> 100 µM (inactive)	> 100 µM (inactive)	> 100 µM (inactive)		
[O-][Cl+3]([O-])([O-])O.c1ccc(C2=NN2c2ccccc2)cc1					4.27 µM (inactive)	> 100 µM (inactive)		
CN1CCN([C@H]2C[C@H]3[C@@H]4CC=C5C[C@@H](O)CC[C@]5(C)[C@H]4CC[C@]3(C)[C@H]2O)CC1				> 100 µM (inactive)	19 µM (inactive)	> 81.8 µM (inactive)		
OC1C[C@H](c2ccccc2)C2(C(O)c3ccccc3C2O)[C@@H](c2ccccc2)C1 (stereo not given in full)				> 100 µM (inactive)	> 100 µM (inactive)	> 100 µM (inactive)		
CC(C)(C)OC(=O)NC(Cc1ccc(OCc2ccccc2)cn1)C(=O)NCc1ccccc1 (stereo not given)				29 µM (inactive)	19.8 µM (inactive)	20.7 µM (inactive)		
COC(=O)[C@@H](N1C(=O)c2ccccc2C1=O)C1(C)CC(Cl)=NO1 (stereo not given in full)				29.8 µM (inactive)	> 100 µM (inactive)	42.7 µM (inactive)		
Cc1ccc(NC(=O)/C=C/c2ccccc2)c(C)c1				21.7 µM (inactive)	> 100 µM (inactive)	> 100 µM (inactive)		
COc1ccc(-c2nc(-c3cc4ccccc4oc3=O)cs2)cc1				40.9 µM (inactive)		> 100 µM (inactive)		
[O-]c1c[n+](CC[n+]2cc([O-])on2)no1				> 100 µM (inactive)	> 100 µM (inactive)	> 100 µM (inactive)		
c1ccc2c(CN3CCN(Cc4c[nH]c5ccccc45)CC3)c[nH]c2c1				15.9 µM (inactive)	14.9 µM (inactive)	22 µM (inactive)		
O=Cc1c2ccccc2n2ccc3c4ccccc4[nH]c3c12				> 10 µM (inactive)	> 10 µM (inactive)	> 10 µM (inactive)		
COc1ccc2c(c1)C(OC)C1c3c(cc4c(c3-2)OCO4)CCN1C (stereo not given)				1.96 µM (inactive)	2.86 µM (inactive)	2.28 µM (inactive)		
O[C@@H]1CCC[C@@H]2NC[C@@H](c3ccc4c(c3)OCO4)[C@H]12				99.1 µM (inactive)	> 100 µM (inactive)			
O=C(Cn1cc(F)c(=O)[nH]c1=O)C12CC3CC(CC(C3)C1)C2				> 100 µM (inactive)	> 100 µM (inactive)	> 100 µM (inactive)		

SMILES	GI50 (LXFL 529)	GI50 (KM-20L2)	GI50 (DLD-1)	GI50 (Hs-578T)	GI50 (MDA-N)	GI50 (BT-549)	GI50 (DMS-273)	GI50 (HOP-18)
COc1ccc2c3c1OC1C(OC)(OC)C=C[C@@]4(Br)[C@@H](C2)N(CC2CC2)CC[C@]314 (stereo not given in full)				41.7 µM (inactive)	49.5 µM (inactive)			
CC(=O)c1sc2n(C)c(=O)c3ccccc3[n+]2c1C				> 100 µM (inactive)	> 100 µM (inactive)	> 100 µM (inactive)		
CCOC(=O)C(C)NC(=O)N(C)C12CC3CC(CC(C3)C1)C2 (stereo not given)		199 µM (inactive)	50.7 µM (inactive)				209 µM (inactive)	210 µM (inactive)
COc1ccc(N2C(=O)C3ON(C(C(N)=O)c4ccccc4)C(c4cc5ccccc5c5ccccc45)C3C2=O)cc1 (stereo not given)				> 50 µM (inactive)	11.8 µM (inactive)	24.7 µM (inactive)		
O=[N+]([O-])c1cccc2nccc(NCCCO)c12				13.1 µM (inactive)	9.66 µM (inactive)	8.93 µM (inactive)		
N#C/C(=C/NC(=S)NCc1ccccc1)C(N)=O				> 100 µM (inactive)	> 100 µM (inactive)			
CC12CCC3C(CCC4(O)C=CCCC34C=O)C1(O)CC(O)C2c1ccc(=O)oc1 (stereo not given)		0.0668 µM (active)	0.0578 µM (active)				< 0.05 µM (active)	0.0679 µM (active)
CCOC(=O)c1csc(-c2nc(CCNC(=O)c3ccccc3)sc2Cl)n1				> 100 µM (inactive)	> 100 µM (inactive)	32.7 µM (inactive)		
c1cc(Sc2nc(Sc3ccncc3)nc(Sc3ccncc3)n2)ccn1				> 100 µM (inactive)	> 100 µM (inactive)	> 100 µM (inactive)		
O=C1N(CN2CCOCC2)CN(CN2CCOCC2)C(=O)N1Cc1ccccc1					18.2 µM (inactive)	21.6 µM (inactive)		
CCN(CC)CCCNc1nncc2c(C)c3[nH]c4ccccc4c3cc12				0.865 µM (active)	1.06 µM (active)	1.34 µM (inactive)		
CCOC(=O)c1c(N2CCOCC2)[nH]c(=O)c(C(c2c(Cl)cccc2Cl)c2c(O)c(C(=O)OCC)c(N3CCOCC3)[nH]c2=O)c1O				4.86 µM (inactive)		7.76 µM (inactive)		
CN(C)CCNc1c([N+](=O)[O-])cc2c3c(cccc13)C(=O)N(CCN(C)C)C2=O		1.21 µM (inactive)	1.52 µM (inactive)				1.07 µM (active)	1.52 µM (inactive)
COC(=O)C1=C(OC(=O)/C(=C/c2ccc(Cl)cc2)c2ccc(Cl)cc2)C(C(=O)OC)[C@]2(O)[C@@H](C(=O)OC)[C@H]1C[C@@H](c1ccccc1)[C@@H]2C(=O)OC (stereo not given in full)					> 100 µM (inactive)	90.4 µM (inactive)		
CCOC(=O)C1=C(c2ccccc2)C12N(Cc1ccccc1)C(=O)C2(c1ccccc1)c1ccccc1 (stereo not given)				36.9 µM (inactive)	25.5 µM (inactive)	24.8 µM (inactive)		
COc1cc(/C=C(\C#N)C(N)=O)cc(Br)c1O		> 100 µM (inactive)	92 µM (inactive)				> 100 µM (inactive)	> 100 µM (inactive)
O=C1Nc2ccccc2S/C1=C\c1cccc(C(F)(F)F)c1				> 100 µM (inactive)	> 100 µM (inactive)	> 100 µM (inactive)		
COC(=O)C1(CCCCCBr)CCCCCCCCCCC1=O (stereo not given)				> 100 µM (inactive)	29.2 µM (inactive)			
O=C(N/N=C(COc1ccccc1Cl)\N=C\c1cccnc1)c1ccncc1				66.2 µM (inactive)	> 100 µM (inactive)	> 100 µM (inactive)		
COC1(OC)CCC2(C)OC(c3ccccc3)C1O2 (stereo not given)	> 100 µM (inactive)	> 100 µM (inactive)	> 100 µM (inactive)				> 100 µM (inactive)	

SMILES	GI50 (LXFL 529)	GI50 (KM-20L2)	GI50 (DLD-1)	GI50 (Hs-578T)	GI50 (MDA-N)	GI50 (BT-549)	GI50 (DMS-273)	GI50 (HOP-18)
COc1ccc(-c2nc3ccccc3c(=S)n2OC(C)=O)cc1				12.2 µM (inactive)	12 µM (inactive)	8.57 µM (inactive)		
[O-]c1on[n+]2c1c(Nc1ccc(Cl)cc1)nc1ccccc12	> 100 µM (inactive)	> 100 µM (inactive)	> 100 µM (inactive)				> 100 µM (inactive)	
CCCC(=O)Nc1cc(C(=O)N2C[C@H]3C[C@@]34C2=CC(=O)c2[nH]cc(C)c24)n(COC)c1				0.512 µM (active)	0.582 µM (active)	0.253 µM (active)		
COC(=O)Cc1cc(=O)n2c([nH]c3ccccc32)c1C#N		> 100 µM (inactive)	30.8 µM (inactive)				> 100 µM (inactive)	
COc1cc([C@@H]2c3cc4c(cc3[C@H](OC3OC5COC(C(C)C)OC5C(O)C3O)C3COC(=O)[C@@H]32)OCO4)cc(OC)c1OC (stereo not given in full)				3.17 µM (inactive)	2.18 µM (inactive)	5.52 µM (inactive)		
CCOC(=O)C1S/C(=N\c2ccc(C)c(C)c2)N=C1C (stereo not given)	> 100 µM (inactive)	> 100 µM (inactive)	> 100 µM (inactive)				> 100 µM (inactive)	> 100 µM (inactive)
O=C(N/C(=C\c1ccccc1)c1nc2ccccc2c(=O)o1)c1ccccc1				22.1 µM (inactive)	> 53 µM (inactive)	20 µM (inactive)		
N#Cc1c2c(c(N)oc1=O)C(c1ccccc1)CC(=O)N2 (stereo not given)				> 100 µM (inactive)	> 100 µM (inactive)	> 100 µM (inactive)		
O=C1C=CC[C@H]2O[C@@H](COC(=O)Cc3ccccc3)C[C@H]2O1				26.2 µM (inactive)	41 µM (inactive)			
Cc1c(C2=NN=C(/N=N/c3c(O)cccc3O)/C2=C/c2ccccc2)c(=O)n(-c2ccccc2)n1C		> 100 µM (inactive)	> 100 µM (inactive)				> 100 µM (inactive)	> 100 µM (inactive)
CSCCCCCCCCCCOc1ccc(C=C2C(=C(C#N)C#N)c3ccccc3C2=C(C#N)C#N)cc1				20.5 µM (inactive)	18.3 µM (inactive)			
CC1=CC(=O)N(n2c(C)n[nH]c2=O)C1=O				> 100 µM (inactive)	> 100 µM (inactive)	> 100 µM (inactive)		
CCC1(C)N=c2c(ncn2N=C(C)C)=C(C(N)=O)N1 (stereo not given)				> 100 µM (inactive)	> 100 µM (inactive)			
CC(C)c1ccc2c(c1)C=C1OC(=O)[C@]3(C)CCC[C@@]2(C)C13 (stereo not given in full)				> 100 µM (inactive)	> 100 µM (inactive)	> 100 µM (inactive)		
CC1SC(c2ccccc2)N(Nc2c3ccccc3nc3ccccc23)C1=O (stereo not given)	43.3 µM (inactive)	> 100 µM (inactive)	59.2 µM (inactive)				> 100 µM (inactive)	
Br[Se]c1ccccn1				18.7 µM (inactive)	17.7 µM (inactive)	18.9 µM (inactive)		
CC1(CO)C(O)CCC2(C)C1CCC1CC3CC12CCC3(O)CO (stereo not given)			> 100 µM (inactive)				0.44 µM (active)	18.6 µM (inactive)
COc1ccc2cc(C(C)C(=O)N3C(=O)OCC3(C)C)ccc2c1 (stereo not given)					> 100 µM (inactive)	> 100 µM (inactive)		
CC1(C)S[C@@H]2[C@H](NC(=O)CCC[C@@H](N)C(=O)O)C(=O)N2[C@H]1C(=O)O [ADICILLIN]		> 24.8 µM (inactive)	> 50 µM (inactive)				> 50 µM (inactive)	> 50 µM (inactive)
O=c1ccc2ccccc2o1 [COUMARIN]	> 100 µM (inactive)	> 100 µM (inactive)	> 100 µM (inactive)					> 100 µM (inactive)
